What all share (type): functional
The test system of assay [1] is Helicobacter pylori. As to the kind of experiment: In vitro antibacterial activity against Helicobacter pylori (CPY 2052).
For assay [2], the system named is Helicobacter pylori. In words: In vitro antibacterial activity against Helicobacter pylori (No. 7).
The subject of assay [3] is Helicobacter pylori. In words: In vitro antibacterial activity against Helicobacter pylori (NCTC 11637).
The test system of assay [4] is Helicobacter pylori. In words: Antibacterial activity against Helicobacter pylori (No. 7).
The test system of assay [5] is Helicobacter pylori. As to the kind of experiment: Antibacterial activity against Helicobacter pylori (NCTC 11637).
Assay [6] has as its system Helicobacter pylori. As to the kind of experiment: Antibacterial activity against Helicobacter pylori (CPY 2052).

The structures appear in SMILES notation. Converted amounts (≈) assume the structure as drawn. Where only a bound is given, the exact number is not on record here.

Consider `CC1(C)S[C@@H]2[C@H](NC(=O)[C@H](N)c3ccc(O)cc3)C(=O)N2[C@H]1C(=O)O` [AMOXICILLIN], for which the MIC in assay [1] is 0.05 µg/mL (≈ 0.137 µM); in assay [2] it was 0.1 µg/mL (≈ 0.274 µM); in assay [3], 0.025 µg/mL (≈ 0.0684 µM).

`CC(C)=CCC/C(C)=C/CC/C(=C/CC/C(C)=C/C/N=C(\S)NCCc1ccccc1)C/N=C(\S)NCCc1ccccc1`: the minimum inhibitory concentration (MIC) was determined as 0.78 µg/mL (≈ 1.24 µM) in assay [1], 6.25 µg/mL (≈ 9.9 µM) in assay [2] and 6.25 µg/mL (≈ 9.9 µM) in assay [3].

Consider `CC(C)=CCC/C(C)=C/CCC(=CCCC(C)=CCO)C/N=C(\S)NCCc1ccccc1`, for which the MIC in assay [1] was 1.56 µg/mL (≈ 3.33 µM); in assay [2], 1.56 µg/mL (≈ 3.33 µM); in assay [3] it was 25 µg/mL (≈ 53.3 µM).

As for `CC(C)=CCC/C(C)=C/CC/C(=C/CC/C(C)=C/C/N=C(\S)NCCc1ccccc1)CO`, the minimum inhibitory concentration (MIC) in assay [1], in assay [2] and in assay [3] was no more than 0.1 µg/mL in each case.

Regarding `CC(C)=CCC/C(C)=C/CC/C(=C/CC/C(C)=C/CO)CO` [PLAUNOTOL], the MIC in assay [4] was found to be 6.25 µg/mL (≈ 20.4 µM); in assay [5], 12.5 µg/mL (≈ 40.8 µM); in assay [6] it was 6.25 µg/mL (≈ 20.4 µM).

One may read the MIC as the smallest concentration in the dilution series that meets the test's criterion for growth inhibition. A lower MIC goes with a more susceptible organism.

The values above are taken from ChEMBL document CHEMBL1131705, “A highly stereoselective synthesis of plaunotol and its thiourea derivatives as potent antibacterial agents against Helicobacter pylori” (1999).
